Experimental data published in patent publication EP0618796B1 (priority 1991, dated 1993).

Key:
RAT MAST CELL = assay: Inhibition of rat mast cell degranulation in vitro (histamine release); format: cell-based, rats; details: ID20 = inhibitory dose causing 20% inhibition, mast cells stimulated in vitro
Description: First, mast cells from rats (peritoneal cavity) or humans (chronic peritoneal dialysis fluid) are purified; otherwise, rat basophilic leukemia (RBL) cells are kept in culture. Any of these mast cells are then exposed to various concentrations of inhibitory compounds to allow binding of the inhibitor to the receptor sites before testing their efficacy with respect to inhibition of mast cell degranulation. They are then used as such or washed free of unbound drug before exposure to stimuli known to induce degranulation. Compounds which are inhibitory prevent the stimulus from causing degranulation by binding to specific receptors or inactivating a crucial step in the degranulation process.
The mast cell degranulation blocking agent is administered in a pharmaceutically effective amount. The dosage range for pharmaceutical effectiveness can be determined by reference to standard laboratory tests for inhibition of mast cell degranulation and by the dosages used for such agents in other conditions. The pharmaceutically effective dose of the mast cell degranulation blocking agent can be approximated by its ID20, which is defined as the dose necessary to cause 20% inhibition in mast cells when applied to mast cells stimulated in vitro. The ID20 of selected inhibitors of the anti-histamine category is as follows: Table 2

Rat Mesentery Mast Cells = details: ED20 = effective dose causing 20% secretion; antihistamines which cause mast cell degranulation; cited from earlier work
[1] = intramuscular administration during severe migraine; hydroxyzine 50 mg; compared with placebo; cited from earlier work
[2] = administered individually, without analgesic; cited from earlier work

SMILES | IC20 (RAT MAST CELL) | ED20 for Histamine Release (Rat Mesentery Mast Cells) | other results
CC(C)(C)c1ccc(C(O)CCCN2CCC(C(O)(c3ccccc3)c3ccccc3)CC2)cc1 (stereo not shown) [Terfenadine] | 5 µM |  | 
CN1CCN(C(c2ccccc2)c2ccccc2)CC1 [Cyclizine] |  | 0.0005 M | 
CC(CN1c2ccccc2Sc2ccccc21)N(C)C (stereo not shown) [Promethazine] |  | 10^-4 M | 
OCCOCCN1CCN(C(c2ccccc2)c2ccc(Cl)cc2)CC1 (stereo not shown) [Hydroxyzine] | 50 µM |  | effectiveness in the treatment of pain associated with classic migraine [1]: no more effective than a placebo
Oc1ccc2c3c1O[C@H]1[C@@H](O)CC[C@@]4(O)[C@@H](C2)N(CC2CCC2)CC[C@]314 [nalbuphine] |  |  | effectiveness in the treatment of pain associated with classic migraine [1]: no more effective than a placebo
CN(C)CCC(c1ccc(Cl)cc1)c1ccccn1 (stereo not shown) [Clorphenyramine] |  | 10^-3 M | 
CN1CCC(=C2c3ccccc3CCc3cccnc32)CC1 [Azatadine] | 0.1 µM |  | 
CN1CCC(=C2c3ccccc3C=Cc3ccccc32)CC1 [Cyproheptadine] | 5 µM |  | 
CN(C)CCOC(c1ccccc1)c1ccccc1 [Diphenhydramine] |  | 10^-3 M | 
CC(C)(C)c1ccc(CN2CCN(C(c3ccccc3)c3ccc(Cl)cc3)CC2)cc1 (stereo not shown) [Buclizine, buclizine] |  |  | effectiveness against migraine [2]: ineffective
O=c1[nH]c2ccccc2n1CCCN1CCN(C(c2ccccc2)c2ccccc2)CC1 [Oxatomide] | 0.1 µM |  | 
CN1CCC(=C2c3ccccc3CC(=O)c3sccc32)CC1 [Ketotifen] | 10 µM |  | 
